Measured values published in ChEMBL document CHEMBL4261568, “Pyrimidine Nucleotides Containing a (S)-Methanocarba Ring as P2Y6 Receptor Agonists” (Medchemcomm, 2017).
Active and inactive are the calls of the source. The rule behind the calls is not given here.

Columns and labels:
[1] = Half life in human 1321N1 cell membranes; assay type: ADME, cell-based
[2] = biological target: P2Y purinoceptor 6 (Homo sapiens, UniProt Q15077); assay: Agonist activity at human P2Y6 receptor expressed in human 1321N1 cells assessed as induction of calcium mobilization by FLIPR method; assay type: functional, cell-based
Sequence of P2Y purinoceptor 6 (Q15077 whole entry): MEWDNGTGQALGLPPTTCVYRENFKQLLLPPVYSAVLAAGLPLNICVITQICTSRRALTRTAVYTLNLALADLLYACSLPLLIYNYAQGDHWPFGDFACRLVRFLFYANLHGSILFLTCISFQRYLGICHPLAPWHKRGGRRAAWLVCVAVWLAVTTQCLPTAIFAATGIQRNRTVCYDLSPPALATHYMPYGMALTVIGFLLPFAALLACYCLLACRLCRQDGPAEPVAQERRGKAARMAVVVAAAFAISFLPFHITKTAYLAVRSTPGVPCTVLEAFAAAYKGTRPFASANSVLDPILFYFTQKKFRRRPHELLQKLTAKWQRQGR

[3] = biological target: P2Y purinoceptor 2 (Homo sapiens) (UniProt P41231); assay: Antagonist activity at human P2Y2 receptor expressed in human 1321N1 cells assessed as inhibition of calcium mobilization at 10 uM measured over 2 mins by Fluo-4 dye-based FLIPR method relative to control; assay type: functional, cell-based
Sequence of P2Y purinoceptor 2 (Homo sapiens) (P41231 whole entry): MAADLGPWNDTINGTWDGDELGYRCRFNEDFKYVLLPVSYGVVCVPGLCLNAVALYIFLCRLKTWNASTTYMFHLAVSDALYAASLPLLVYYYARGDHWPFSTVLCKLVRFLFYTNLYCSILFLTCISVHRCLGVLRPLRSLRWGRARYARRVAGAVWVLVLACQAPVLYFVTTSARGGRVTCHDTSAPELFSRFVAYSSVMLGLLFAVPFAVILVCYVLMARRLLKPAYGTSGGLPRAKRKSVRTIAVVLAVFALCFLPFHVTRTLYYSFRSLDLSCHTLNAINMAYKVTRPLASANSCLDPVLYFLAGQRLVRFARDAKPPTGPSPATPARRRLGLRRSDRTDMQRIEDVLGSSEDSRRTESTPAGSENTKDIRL

[4] = biological target: P2Y purinoceptor 4 (Homo sapiens) (UniProt P51582); assay: Agonist activity at human P2Y4 receptor expressed in human 1321N1 cells assessed as induction of calcium mobilization at 10 uM measured over 2 mins by Fluo-4 dye-based FLIPR method relative to control; assay type: functional, cell-based
Sequence of P2Y purinoceptor 4 (Homo sapiens) (P51582 whole entry): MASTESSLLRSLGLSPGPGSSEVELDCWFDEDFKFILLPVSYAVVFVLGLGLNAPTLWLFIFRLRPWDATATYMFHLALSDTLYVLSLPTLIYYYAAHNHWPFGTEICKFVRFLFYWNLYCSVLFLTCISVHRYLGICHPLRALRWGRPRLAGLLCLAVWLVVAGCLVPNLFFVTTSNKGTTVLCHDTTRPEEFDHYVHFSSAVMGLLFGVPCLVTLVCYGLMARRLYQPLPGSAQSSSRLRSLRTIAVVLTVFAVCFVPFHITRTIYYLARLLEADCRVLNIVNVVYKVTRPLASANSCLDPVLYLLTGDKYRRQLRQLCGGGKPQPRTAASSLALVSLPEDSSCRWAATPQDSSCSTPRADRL

[5] = biological target: P2Y purinoceptor 4 (Homo sapiens) (UniProt P51582); assay: Antagonist activity at human P2Y4 receptor expressed in human 1321N1 cells assessed as inhibition of calcium mobilization at 10 uM measured over 2 mins by Fluo-4 dye-based FLIPR method relative to control; assay type: functional, cell-based
[6] = biological target: P2Y purinoceptor 2 (Homo sapiens) (UniProt P41231); assay: Agonist activity at human P2Y2 receptor expressed in human 1321N1 cells assessed as induction of calcium mobilization at 10 uM measured over 2 mins by Fluo-4 dye-based FLIPR method relative to control; assay type: functional, cell-based
[7] = biological target: P2Y purinoceptor 1 (Homo sapiens) (UniProt P47900); assay: Antagonist activity at human P2Y1 receptor expressed in human 1321N1 cells assessed as inhibition of calcium mobilization at 10 uM measured over 2 mins by Fluo-4 dye-based FLIPR method relative to control; assay type: functional, cell-based
Sequence of P2Y purinoceptor 1 (Homo sapiens) (P47900 whole entry): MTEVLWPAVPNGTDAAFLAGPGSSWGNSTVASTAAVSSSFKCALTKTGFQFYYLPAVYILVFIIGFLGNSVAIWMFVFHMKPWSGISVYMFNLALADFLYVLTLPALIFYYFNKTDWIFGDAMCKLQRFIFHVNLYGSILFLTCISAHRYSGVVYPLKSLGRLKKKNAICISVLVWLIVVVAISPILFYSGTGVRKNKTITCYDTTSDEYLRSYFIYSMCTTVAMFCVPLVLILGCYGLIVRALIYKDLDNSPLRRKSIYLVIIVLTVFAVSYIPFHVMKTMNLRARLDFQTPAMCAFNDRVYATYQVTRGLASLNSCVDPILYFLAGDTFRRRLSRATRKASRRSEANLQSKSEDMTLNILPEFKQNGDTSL

[8] = biological target: T1, P2Y purinoceptor 11 (Homo sapiens) (UniProt Q96G91); assay: Antagonist activity at human P2Y11 receptor expressed in human 1321N1 cells assessed as inhibition of calcium mobilization at 10 uM measured over 2 mins by Fluo-4 dye-based FLIPR method relative to control; assay type: functional, cell-based
T1 sequence (whole entry): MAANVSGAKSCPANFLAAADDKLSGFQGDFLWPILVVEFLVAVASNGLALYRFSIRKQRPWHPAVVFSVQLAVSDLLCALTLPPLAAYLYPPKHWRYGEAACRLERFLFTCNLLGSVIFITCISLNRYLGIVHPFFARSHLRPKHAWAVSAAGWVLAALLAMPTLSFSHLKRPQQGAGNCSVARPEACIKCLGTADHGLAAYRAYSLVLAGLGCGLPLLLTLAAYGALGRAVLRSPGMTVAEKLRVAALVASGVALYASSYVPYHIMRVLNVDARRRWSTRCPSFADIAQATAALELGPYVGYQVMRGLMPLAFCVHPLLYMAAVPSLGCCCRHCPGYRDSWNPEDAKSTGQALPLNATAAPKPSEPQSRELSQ

[9] = biological target: P2Y purinoceptor 1 (Homo sapiens) (UniProt P47900); assay: Agonist activity at human P2Y1 receptor expressed in human 1321N1 cells assessed as induction of calcium mobilization at 10 uM measured over 2 mins by Fluo-4 dye-based FLIPR method relative to control; assay type: functional, cell-based
[10] = biological target: T2, P2Y purinoceptor 14 (Homo sapiens) (UniProt Q15391); assay: Agonist activity at human P2Y14 receptor expressed in human 1321N1 cells assessed as induction of calcium mobilization at 10 uM measured over 2 mins by Fluo-4 dye-based FLIPR method relative to control; assay type: functional, cell-based
T2 sequence (whole entry): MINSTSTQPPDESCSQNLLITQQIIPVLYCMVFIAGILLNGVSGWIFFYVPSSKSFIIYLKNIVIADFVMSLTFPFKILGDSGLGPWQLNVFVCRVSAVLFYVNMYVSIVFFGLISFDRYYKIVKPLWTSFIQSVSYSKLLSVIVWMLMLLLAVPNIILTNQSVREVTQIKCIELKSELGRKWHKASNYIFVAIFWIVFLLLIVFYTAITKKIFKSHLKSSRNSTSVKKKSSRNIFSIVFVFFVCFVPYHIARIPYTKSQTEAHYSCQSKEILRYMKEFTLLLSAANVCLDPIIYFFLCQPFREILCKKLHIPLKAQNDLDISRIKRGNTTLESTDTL

## CCN(CC)CC.CCN(CC)CC.CO/N=c1/ccn([C@@H]2O[C@H](COP(=O)(O)OP(=O)(O)OP(=O)(O)OC[C@H]3O[C@@H](n4ccc(=O)[nH]c4=O)[C@H](O)[C@@H]3O)[C@@H](O)[C@H]2O)c(=O)[nH]1
[1]
  half-life: 23 min
[2]
  EC50: 1200 nM

## CO/N=c1/ccn([C@]23C[C@H]2[C@H](COP(=O)(O)OP(=O)(O)OP(=O)(O)OC[C@H]2O[C@@H](n4ccc(=O)[nH]c4=O)[C@H](O)[C@@H]2O)[C@@H](O)[C@H]3O)c(=O)[nH]1
[3]
  Imax: 40.3%
[4]
  %max: 10.2%
[5]
  Imax: 25%
[6]
  %max: 16%
[7]
  Imax: 56.8%
[8]
  Imax: 0.1%
[2]
  EC50: 4120 nM
[9]
  %max: -0.6%

## CO/N=c1/ccn([C@]23C[C@H]2[C@H](COP(=O)(O)OP(=O)(O)OP(=O)(O)OC[C@@H]2[C@@H](O)[C@@H](O)[C@@]4(n5cc/c(=N/OC)[nH]c5=O)C[C@@H]24)[C@@H](O)[C@H]3O)c(=O)[nH]1
[2]
  EC50: 5490 nM

## O=c1[nH]c(=O)n([C@@H]2O[C@H](COP(=O)(O)OP(=O)(O)O)[C@@H](O)[C@H]2O)cc1I
[2]
  EC50: 49.1 nM

## CO/N=c1/ccn([C@]23C[C@H]2[C@H](COP(=O)(O)OP(=O)(O)OP(=O)(O)OC[C@@]24C[C@@H]2[C@@H](n2ccc(=O)[nH]c2=O)[C@H](O)[C@@H]4O)[C@@H](O)[C@H]3O)c(=O)[nH]1
[2]
  EC50: 705 nM

## O=c1[nH]/c(=N\OCc2ccccc2)ccn1[C@]12C[C@H]1[C@H](COP(=O)(O)CP(=O)(O)O)[C@@H](O)[C@H]2O
[2]
  EC50: 4960 nM

## O=c1[nH]/c(=N\OCc2ccccc2)ccn1[C@]12C[C@H]1[C@H](COP(=O)(O)OP(=O)(O)O)[C@@H](O)[C@H]2O
[2]
  EC50: 793 nM

## O=c1ccn([C@@H]2O[C@H](COP(=O)(O)OP(=O)(O)O)[C@@H](O)[C@H]2O)c(=O)[nH]1
[2]
  EC50: 132 nM

## CO/N=c1/ccn([C@@H]2O[C@H](COP(=O)(O)OP(=O)(O)O)[C@@H](O)[C@H]2O)c(=O)[nH]1
[1]
  half-life: 55 min

## CO/N=c1/ccn([C@]23C[C@H]2[C@H](COP(=O)(O)OP(=O)(O)OP(=O)(O)OC[C@@H]2[C@@H](O)[C@@H](O)[C@@]4(n5ccc(=O)[nH]c5=O)C[C@@H]24)[C@@H](O)[C@H]3O)c(=O)[nH]1
[2]
  EC50: 6900 nM

## CO/N=c1/ccn([C@]23C[C@H]2[C@H](COP(=O)(O)OP(=O)(O)O)[C@@H](O)[C@H]3O)c(=O)[nH]1
[3]
  Imax: 16.8%
[4]
  %max: 2.2%
[5]
  Imax: 10%
[6]
  %max: 8.9%
[7]
  Imax: 17%
[8]
  Imax: -3.9%
[2]
  EC50: 493 nM
[9]
  %max: -0.5%

## O=c1ccn([C@]23C[C@H]2[C@H](COP(=O)(O)OP(=O)(O)O)[C@@H](O)[C@H]3O)c(=O)[nH]1
[10]
  Activity: inactive
[2]
  EC50: 438 nM

## O=c1[nH]c(=O)n([C@]23C[C@H]2[C@H](COP(=O)(O)OP(=O)(O)O)[C@@H](O)[C@H]3O)cc1I
[2]
  EC50: 440 nM

## O=c1[nH]/c(=N\OCc2ccccc2)ccn1[C@@H]1O[C@H](COP(=O)(O)CP(=O)(O)O)[C@@H](O)[C@H]1O
[2]
  EC50: 2360 nM

## CO/N=c1/ccn([C@@H]2O[C@H](COP(=O)(O)CP(=O)(O)O)[C@@H](O)[C@H]2O)c(=O)[nH]1
[2]
  EC50: 420 nM

## CO/N=c1/ccn([C@]23C[C@H]2[C@H](COP(=O)(O)CP(=O)(O)O)[C@@H](O)[C@H]3O)c(=O)[nH]1
[2]
  EC50: 6290 nM

## O=c1ccn([C@]23C[C@H]2[C@H](COP(=O)(O)CP(=O)(O)O)[C@@H](O)[C@H]3O)c(=O)[nH]1
[2]
  EC50: 47100 nM
